According to patent publication US20240366567A1, “PHARMACEUTICAL COMBINATIONS COMPRISING A KRAS G12C INHIBITOR AND USES THEREOF FOR THE TREATMENT OF CANCERS” (NOVARTIS AG, priority 2021, published 2024):

Columns and labels:
[1] = test system: KRAS G12C and CDKN2A-mutated LU99 xenograft; assay: LU99 xenograft, Compound A with ribociclib (Example 7); assay type: in vivo; details: LU99 xenograft in mice
[2] = test system: KRAS G12C, PIK3CA and CDKN2A-mutated LU99 xenograft; assay: LU99 xenograft, single agent and double, triple, quadruple combinations (Example 8); assay type: in vivo, mice; details: 7.5 mg/kg daily

| Structure (SMILES) | effect on tumor growth [1] | effect on tumor growth compared to the vehicle group [2] |
| --- | --- | --- |
| CN(C)C(=O)c1cc2cnc(Nc3ccc(N4CCNCC4)cn3)nc2n1C1CCCC1 [ribociclib, reference compound] | did not have any effect on tumor growth |  |
| C[C@@H]1OCC2(CCN(c3cnc(Sc4ccnc(N)c4Cl)c(N)n3)CC2)[C@@H]1N [TNO155, (3S,4S)-8-(6-amino-5-((2-amino-3-chloropyridin-4-yl)thio)pyrazin-2-yl)-3-methyl-2-oxa-8-azaspiro[4.5]decan-4-amine, reference compound] |  | did not have any effect on tumor growth |
